Reference: patent US20060009428A1, “Cyclic progestin regimens and kits” (Wyeth, priority 2004, published 2006)
Values joined by “and” are separate entries in the source; they are usually repeats but may differ in a detail not shown here. Equal values may be shown once.

What was measured:
Type in all cases: in vivo
[1] = system: estrogen-induced C3 expression in the uterine epithelium; experiment: Adult ovariectomized rat uterine C3 model; conditions: po, once daily for 2 days, with EE 0.08 mg/kg on day 2; for ED50: Rattus norvegicus, 48 h
Experimental: The third model for PR agonist activity was the adult ovariectomized rat uterine C3 model. This assay evaluates the ability of a progestin to block estrogen-induced C3 expression in the uterine epithelium.
Ovariectomized female, 60 day-old Sprague-Dawley rats were obtained from Harlan (Indianapolis, Ind.). Ovariectomies were performed by the supplier a minimum of 8 days prior tobefore treatment. The rats were randomized and placed in groups of 6. The animals were treated once daily for (2) two days orally by gavage (p.o.) in a volume of 0.5 mL. On the second day of treatment, the animals were also treated with EE (0.08 mg/kg body weight (BW)) orally by gavage. Approximately 24 hours after the final treatment, the animals were euthanized by CO2 asphyxiation. The uteri were then removed, stripped of remaining fat and mesentery, weighed, and snap-frozen on dry ice. Total RNA was isolated from the uteri using the Trizol Reagent (GibcoBRL) as described by the manufacturer. Real-time reverse transcription polymerase chain reaction (RT-PCR) as previously reported [Sampath D, et al., “Aberrant expression of Cyr61, a member of the CCN (CTGF/Cyr61/Cef10/NOVH) family, and dysregulation by 17b-estradiol and basic fibroblast growth factor in human uterine leiomyomas” J Clin Endocrinol Metab. 2001; 86:1707-1715] was used to quantitate complement C3 expression. Briefly, RNA samples were DNAse-I treated using a DNA-free kit (Ambion). A total of 50 ng of RNA was analyzed in triplicate using C3 specific primer pair (5′primer […] [SEQ ID NO: 1], 3]primer […] [SEQ ID NO: 2]) and customized probe (6FAM-[…]-TAMRA [SEQ ID NO: 3]). C3 messenger RNA (mRNA) levels were normalized to 18s 18S ribosomal RNA contained within each sample reaction using primers and probe supplied by PE Applied Biosystems.

[2] = system: rabbit endometrial transformation; experiment: Rabbit endometrial transformation (Clauberg) assay; conditions: for ED50: Oryctolagus cuniculus, 120 h, read-out: Rabbit Clauberg Assay estimated ED50 (AED50)
Experimental: In addition to the rat progestational models described above, NSP-989 was also evaluated in the Clauberg model, a classic progestational assay in the rabbit endometrial transformation model [McPhail MK, “The assay of progestin.” J Physiol. 1934; 83:145-1567]. Briefly, immature female New Zealand White rabbits (˜1 kg body weight) were injected subcutaneously with 5 μg 17β-estradiol (E2)/rabbit/day for six consecutive days. Beginning 24 hours after the final E2 injection, vehicle alone or test compounds were given orally for (5) five consecutive days. Progestational activity was determined by increases in uterine weight and endometrial glandular arborization (McPhail Index).

[3] = biological target: T1, progesterone receptor (Rattus norvegicus, UniProt Q63449); experiment: Rat uterine decidualization assay in adult ovariectomized rats; conditions: for ED50: rat, read-out: Rat Decidual Assay ED50
T1 construct: the uterine decidualization assay in adult ovariectomized rats; from tissue; host or cells: uterus of live ovariectomized Sprague-Dawley rats (in vivo)
T1 sequence (Q63449 1-923): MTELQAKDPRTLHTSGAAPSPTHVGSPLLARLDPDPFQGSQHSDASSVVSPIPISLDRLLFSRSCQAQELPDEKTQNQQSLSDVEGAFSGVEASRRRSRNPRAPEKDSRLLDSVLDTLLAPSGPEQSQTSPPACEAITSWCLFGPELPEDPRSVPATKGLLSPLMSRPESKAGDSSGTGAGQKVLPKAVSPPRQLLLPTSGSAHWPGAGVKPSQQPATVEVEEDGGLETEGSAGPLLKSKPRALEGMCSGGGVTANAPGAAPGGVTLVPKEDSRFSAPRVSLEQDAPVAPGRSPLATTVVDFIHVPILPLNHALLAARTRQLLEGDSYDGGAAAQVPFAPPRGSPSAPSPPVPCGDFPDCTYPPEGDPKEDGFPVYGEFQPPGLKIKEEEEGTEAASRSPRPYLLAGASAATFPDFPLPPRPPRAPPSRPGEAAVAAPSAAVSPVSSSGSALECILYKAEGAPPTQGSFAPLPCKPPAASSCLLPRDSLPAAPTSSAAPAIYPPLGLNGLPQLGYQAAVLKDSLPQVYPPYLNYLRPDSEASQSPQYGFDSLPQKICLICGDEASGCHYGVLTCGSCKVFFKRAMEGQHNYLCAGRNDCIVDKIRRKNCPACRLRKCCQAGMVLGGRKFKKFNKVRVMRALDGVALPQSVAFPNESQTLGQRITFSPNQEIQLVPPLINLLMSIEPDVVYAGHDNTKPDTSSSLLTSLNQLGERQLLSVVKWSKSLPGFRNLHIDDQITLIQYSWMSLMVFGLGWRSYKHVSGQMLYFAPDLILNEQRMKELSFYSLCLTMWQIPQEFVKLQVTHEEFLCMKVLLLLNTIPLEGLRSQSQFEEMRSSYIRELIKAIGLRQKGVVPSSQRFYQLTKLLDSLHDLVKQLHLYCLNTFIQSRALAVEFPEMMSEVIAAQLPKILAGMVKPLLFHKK
Experimental: The second rat model to determine progestational activity is the uterine decidualization assay in adult ovariectomized rats.
Briefly, mature female Sprague-Dawley rats (˜220 g) were ovariectomized at least 10 days prior to treatment to reduce circulating sex steroids. […] Approximately 24 hours after the third daily treatment, decidualization was induced in onel uterine horn of each anesthetized rat by scratching the antimesometrial luminal epithelium with a blunt 21-gauge needle. The contralateral horn was not scratched and served as a non-stimulated control. Animals were euthanized by CO2 asphyxiation 24 hoursr following the final treatment. The uteri were removed, and trimmed of fat, and the decidualized (D) and control (C) horns were weighed separately. The decidual response is expressed as D/C.

[4] = system: ovulation in adult female rats; experiment: Rat ovulation inhibition assay; conditions: po, once daily for 4 days, Sprague-Dawley rats
Experimental: The ovulation inhibition assay measures a compound's ability to inhibit ovulation in adult female rats. This activity is essential for contraceptive efficacy.
Random cycling mature female Sprague-Dawley rats (˜200 g) were obtained from Charles River Laboratory (Boston, Mass.). Rats were synchronized for estrus with 2 μg of LHRH (in phosphate buffered saline containing 0.1% bovine serum albumin) administered subcutaneously (sc) per rat at 0900 h and again at 1600 h. Animals were allowed to rest for 8 days before the administration of test compounds. Animals were then grouped, with 7 to 9 rats per treatment group. The morning of the ninth day following LHRH treatment, the rats were treated with test compounds once daily, by gavage. This continued for 4 consecutive days. The animals were euthanized the morning following the last treatment. Oviducts were removed, placed between 2 glass slides, and viewed through a dissecting microscope to count ova. The number of animals presenting ova in the oviduct from each treatment group and the number of ova in the oviduct of each animal were recorded.

[5] = po, 5 days, estradiol-primed immature rabbits, limited dose response studies
[6] = po, once daily for 7 days, ovariectomized rats

Rat Decidual Assay ED50 [3, 6]	ED50 [3, 6]	Potency in decidualization relative to MPA (fold more potent) ([3]; versus MPA)	Potency in decidualization relative to TMG (fold more potent) ([3]; versus TMG)	Compound	Rat C3 Assay ED50 [1]	Rabbit Clauberg Assay estimated ED50 (AED50) [2, 5]	Rat Ovulation Inhibition Assay ED100 [4]	ED50 [1]	ED50 [2, 5]	Potency in Clauberg assay relative to MPA (fold more potent) ([2]; versus MPA)
1.0 mg/kg				C[C@H](O)C(=O)[C@@]1(C)CC[C@H]2[C@@H]3CCC4=CC(=O)CCC4=C3CC[C@@]21C [TMG, trimegestone]	0.005 mg/kg	0.001 mg/kg	1 mg/kg and 1.0 mg/kg			
	0.01 mg/kg	approximately 40 fold	~100 fold	Cn1c(C#N)ccc1-c1ccc2c(c1)C(C)(C)OC(=S)N2 [NSP-989, 5-(4,4-Dimethyl-2-thioxo-1,4-dihydro-2H-benzo[d] [1,3]oxazin-6-yl)-1-methyl-1H-pyrrole-2-carbonitrile]			0.03 mg/kg	0.0005 mg/kg	0.001 mg/kg	about 30 fold
	0.4 mg/kg			CC(=O)O[C@]1(C(C)=O)CC[C@H]2[C@@H]3C[C@H](C)C4=CC(=O)CC[C@]4(C)[C@H]3CC[C@@]21C [MPA, medroxyprogesterone acetate]			1 mg/kg and 1.0 mg/kg	0.03 mg/kg	0.03 mg/kg	
